Paper PMC5515969, “Effects of 31 FDA approved small-molecule kinase inhibitors on isolated rat liver mitochondria” (Archives of Toxicology, 2016)

Legend:
[1] = test system: isolated rat liver mitochondria; assay: Mitochondrial oxygen consumption (glutamate/malate or succinate driven, state 4 and state 3); assay type: biochemical; settings: DMSO treated samples set as 1; for State 3 respiration driven by succinate at 10XCmax: key: 0 indicates that the drug had no effects (negative); for State 3 respiration driven by succinate at 1XCmax: key: 0 indicates that the drug had no effects (negative)
Method in brief: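 Oxygen uptake on glutamate/malate or on succinate defined state 4; ADP added 3 min later gave state 3. Mitochondria isolated from rat liver by differential centrifugation, adjusted to 1 mg/ml and pretreated 5 min with inhibitor (0.1% DMSO final). Values relative to DMSO control, set to 1.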

[2] = test system: RCC I; assay: RCC I activity in submitochondrial particles; assay type: biochemical, rat; design: key to RCC I at 10XCmax / RCC I at 100XCmax / RCC I at 50XCmax / RCC I at 30XCmax / RCC I at 20XCmax: activity relative to DMSO-treated controls (control set as 1 = 100%); settings: 10XCmax; DMSO treated samples set as 1
Method in brief: (§1)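 Rat submitochondrial particles (1 mg/ml) were treated with test compounds for 15 min. RCC IV, like RCC III, was monitored at 550 nm every 10 s for 2 min, and RCC I/V at 340 nm each minute for 6 min. DMSO samples defined unit activity.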

[3] = target: T1, RCC II (Rattus norvegicus, UniProt P21913+Q641Z9+Q6PCT8+Q920L2); assay: RCC II activity in submitochondrial particles; assay type: biochemical; design: key: activity relative to DMSO-treated controls (control set as 1 = 100%); settings: DMSO treated samples set as 1
T1 construct: Submitochondrial particles were prepared by subjecting the intact mitochondria to three successive freeze–thaw cycles; from tissue; host or cells: rat liver mitochondria, used as submitochondrial particles
Method in brief: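 Activity relative to DMSO (set as 1) after 15-min exposure of submitochondrial particles (1 mg/ml) to compound. RCC I is defined as rotenone-sensitive activity and RCC II is followed at 600 nm over 6 min.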

[4] = test system: RCC III; assay: RCC III activity in submitochondrial particles; assay type: biochemical, rat; design: key to RCC III at 100XCmax: activity relative to DMSO-treated controls (control set as 1 = 100%); settings: 100XCmax
Method in brief: as §1

[5] = test system: RCC V; assay: RCC V activity in submitochondrial particles; assay type: biochemical, rat; settings: DMSO treated samples set as 1; for RCC V at 5XCmax: key: 0 indicates that the drug had no effects (negative)
Method in brief: as §1

[6] = test system: isolated rat liver mitochondria; assay: Mitochondrial inner membrane potential (MMP), Rhodamine 123; assay type: biochemical; settings: difference in signal between KI and DMSO treated samples at the end of experiments
Text: Fig. 3 KI effects on mitochondrial inner membrane potential (MMP). […] In a, c, data are means and standard derivations from three separate experiments. *p < 0.05 as compared to DMSO-treated samples at the end of experiments. In b, data are means of two independent experiments

[7] = test system: isolated rat liver mitochondria; settings: positive control alamethicin treated samples
[8] = human therapeutic maximal blood concentration, ref product labeling, cited from earlier work
[9] = test system: isolated rat liver mitochondria; assay: Mitochondrial ROS production (CM-H2DCFDA); settings: DMSO treated samples set as 1

T1 sequence (Q920L2 35-656): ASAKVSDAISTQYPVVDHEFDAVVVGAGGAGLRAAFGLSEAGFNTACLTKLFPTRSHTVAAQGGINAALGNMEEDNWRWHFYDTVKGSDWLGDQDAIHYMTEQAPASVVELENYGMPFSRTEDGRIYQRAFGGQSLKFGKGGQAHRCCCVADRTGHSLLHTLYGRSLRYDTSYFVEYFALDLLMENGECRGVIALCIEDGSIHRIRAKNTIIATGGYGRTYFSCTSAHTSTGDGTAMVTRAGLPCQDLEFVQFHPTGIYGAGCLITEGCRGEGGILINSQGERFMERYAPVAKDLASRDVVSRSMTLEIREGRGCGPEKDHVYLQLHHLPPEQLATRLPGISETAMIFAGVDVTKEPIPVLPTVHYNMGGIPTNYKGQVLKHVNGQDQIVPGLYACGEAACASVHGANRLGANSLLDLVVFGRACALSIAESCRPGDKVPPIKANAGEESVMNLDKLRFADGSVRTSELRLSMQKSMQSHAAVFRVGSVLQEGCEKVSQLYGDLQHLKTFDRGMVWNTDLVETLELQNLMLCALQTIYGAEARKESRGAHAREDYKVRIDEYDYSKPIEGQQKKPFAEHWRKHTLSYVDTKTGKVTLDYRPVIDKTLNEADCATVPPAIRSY
T1 sequence (P21913 31-282): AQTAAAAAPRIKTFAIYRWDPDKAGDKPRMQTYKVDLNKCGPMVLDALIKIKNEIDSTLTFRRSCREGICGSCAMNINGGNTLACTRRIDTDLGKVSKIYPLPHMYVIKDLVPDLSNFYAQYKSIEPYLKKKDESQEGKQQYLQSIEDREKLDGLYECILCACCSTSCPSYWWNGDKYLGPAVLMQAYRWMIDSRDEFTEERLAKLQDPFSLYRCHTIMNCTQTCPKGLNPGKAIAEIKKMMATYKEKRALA
T1 sequence (Q641Z9 1-169): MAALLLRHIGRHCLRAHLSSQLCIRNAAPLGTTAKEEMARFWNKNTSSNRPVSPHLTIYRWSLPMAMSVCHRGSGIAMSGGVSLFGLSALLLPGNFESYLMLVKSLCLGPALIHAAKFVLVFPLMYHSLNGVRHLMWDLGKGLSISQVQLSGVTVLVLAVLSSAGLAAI
T1 sequence (Q6PCT8 57-159): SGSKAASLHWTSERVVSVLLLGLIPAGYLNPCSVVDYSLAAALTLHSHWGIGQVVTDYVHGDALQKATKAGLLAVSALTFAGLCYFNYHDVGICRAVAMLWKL

Compound: CN(C)C/C=C/C(=O)Nc1cc2c(Nc3ccc(F)c(Cl)c3)ncnc2cc1O[C@H]1CCOC1 [afatinib dimaleate]
- State 3 respiration driven by glutamate/malate at 1XCmax ([1]; 1XCmax): 0
- State 3 respiration driven by succinate at 1XCmax ([1]; 1XCmax): 0
- State 4 respiration driven by glutamate/malate at 1XCmax ([1]; 1XCmax): 0
- State 4 respiration driven by succinate at 1XCmax ([1]; 1XCmax): 0
- State 3 respiration driven by glutamate/malate at 2.5XCmax ([1]; 2.5XCmax): 0
- State 3 respiration driven by succinate at 2.5XCmax ([1]; 2.5XCmax): 0
- State 4 respiration driven by glutamate/malate at 2.5XCmax ([1]; 2.5XCmax): 0
- State 4 respiration driven by succinate at 2.5XCmax ([1]; 2.5XCmax): 0
- State 3 respiration driven by glutamate/malate at 5XCmax ([1]; 5XCmax): 0
- State 3 respiration driven by succinate at 5XCmax ([1]; 5XCmax): 0
- State 4 respiration driven by glutamate/malate at 5XCmax ([1]; 5XCmax): 0
- State 4 respiration driven by succinate at 5XCmax ([1]; 5XCmax): 0
- State 3 respiration driven by glutamate/malate at 10XCmax ([1]; 10XCmax): 0
- State 3 respiration driven by succinate at 10XCmax ([1]; 10XCmax): 0
- State 4 respiration driven by glutamate/malate at 10XCmax ([1]; 10XCmax): 0
- State 4 respiration driven by succinate at 10XCmax ([1]; 10XCmax): 0
- State 3 respiration driven by glutamate/malate at 20XCmax ([1]; 20XCmax): 0
- State 3 respiration driven by succinate at 20XCmax ([1]; 20XCmax): 0
- State 4 respiration driven by glutamate/malate at 20XCmax ([1]; 20XCmax): 0
- State 4 respiration driven by succinate at 20XCmax ([1]; 20XCmax): 0
- State 3 respiration driven by glutamate/malate at 30XCmax ([1]; 30XCmax): 0
- State 3 respiration driven by succinate at 30XCmax ([1]; 30XCmax): 0
- State 4 respiration driven by glutamate/malate at 30XCmax ([1]; 30XCmax): 0
- State 4 respiration driven by succinate at 30XCmax ([1]; 30XCmax): 0
- State 3 respiration driven by glutamate/malate at 50XCmax ([1]; 50XCmax): 0
- State 3 respiration driven by succinate at 50XCmax ([1]; 50XCmax): 0
- State 4 respiration driven by glutamate/malate at 50XCmax ([1]; 50XCmax): 0
- State 4 respiration driven by succinate at 50XCmax ([1]; 50XCmax): 0
- State 3 respiration driven by glutamate/malate at 100XCmax ([1]; 100XCmax): 0
- State 3 respiration driven by succinate at 100XCmax ([1]; 100XCmax): 0
- State 4 respiration driven by glutamate/malate at 100XCmax ([1]; 100XCmax): 0
- State 4 respiration driven by succinate at 100XCmax ([1]; 100XCmax): 0
- RCC I at 10XCmax [2]: 0
- RCC II at 1.0XCmax ([3]; 1.0XCmax): 0
- RCC II at 2.5XCmax ([3]; 2.5XCmax): 0
- RCC II at 5XCmax ([3]; 5XCmax): 0
- RCC II at 10XCmax ([3]; 10XCmax): 0
- RCC II at 20XCmax ([3]; 20XCmax): 0
- RCC II at 30XCmax ([3]; 30XCmax): 0
- RCC II at 50XCmax ([3]; 50XCmax): 0
- RCC II at 100XCmax ([3]; 100XCmax): 0
- RCC III at 100XCmax [4]: 0
- RCC V at 5XCmax ([5]; 5XCmax): 0
- RCC V at 50XCmax ([5]; 50XCmax): 0
- MMP measured by Rhodamine 123 at 1XCmax ([6]; 1XCmax): 0
- MMP measured by Rhodamine 123 at 2.5XCmax ([6]; 2.5XCmax): 0
- MMP measured by Rhodamine 123 at 5XCmax ([6]; 5XCmax): 0
- MMP measured by Rhodamine 123 at 10XCmax ([6]; 10XCmax): 0
- MMP measured by Rhodamine 123 at 20XCmax ([6]; 20XCmax): 0
- MMP measured by Rhodamine 123 at 30XCmax ([6]; 30XCmax): 0
- MMP measured by Rhodamine 123 at 50XCmax ([6]; 50XCmax): 0
- MMP measured by Rhodamine 123 at 100XCmax ([6]; 100XCmax): 0
- Cytochrome c release 1XCmax ([7]; 1XCmax): 0
- Cytochrome c release 2.5XCmax ([7]; 2.5XCmax): 0
- Cytochrome c release 5XCmax ([7]; 5XCmax): 0
- Cytochrome c release 10XCmax ([7]; 10XCmax): 0
- Cytochrome c release 20XCmax ([7]; 20XCmax): 0
- Cytochrome c release 30XCmax ([7]; 30XCmax): 0
- Cytochrome c release 50XCmax ([7]; 50XCmax): 0
- Cytochrome c release 100XCmax ([7]; 100XCmax): 0
- Cmax (ng or µg/ml) [8]: 0.0252 µg/mL
- Cmax ([8]; read-out: Cmax at µM): 0.04 µM
- ROS measured by CM-H2DCFDA at 1XCmax ([9]; 1XCmax): 0
- ROS measured by CM-H2DCFDA at 2.5XCmax ([9]; 2.5XCmax): 0
- ROS measured by CM-H2DCFDA at 5XCmax ([9]; 5XCmax): 0
- ROS measured by CM-H2DCFDA at 10XCmax ([9]; 10XCmax): 0
- ROS measured by CM-H2DCFDA at 20XCmax ([9]; 20XCmax): 0
- ROS measured by CM-H2DCFDA at 30XCmax ([9]; 30XCmax): 0
- ROS measured by CM-H2DCFDA at 50XCmax ([9]; 50XCmax): 0
- ROS measured by CM-H2DCFDA at 100XCmax ([9]; 100XCmax): 0
